Measurements from patent publication US12053545B2, “Transdermal solvent system and methods of use” (Donaghys Limited, priority 2019, dated 2024).

Assay: Stability of dual anthelmintic solvent system, accelerated aging at 40° C. for 12 months
Type: physicochemical
Settings: for Concentration after 6 months / Concentration after 12 months: active in solvent system of Example 4, 40° C. accelerated aging; for Initial concentration: active in solvent system of Example 4, initial

| Compound | Concentration after 6 months [µg/mL] | Concentration after 12 months [µg/mL] | Initial concentration [g/L] |
| --- | --- | --- | --- |
| c1ccc([C@H]2CN3CCSC3=N2)cc1 [Levamisole] | 25450 | 24100 | 27.15 |
| Eprinomectin | 15800 | 14600 | 16.5 |
